Results as given in patent publication EP0033088A2, “Antimycotic agents” (BAYER AG, priority 1980, dated 1981).

Test system: Candida
Assay: Antimicrobial in-vivo activity (oral) in mouse candidosis
Design: species or system Mäuse vom Typ SPF-DF1
Details: mice infected i.v. with Candida cells; 50 to 100 mg/kg oral, one hour before and seven hours after infection; compared with prior-art compounds; untreated survival about 5 % on day 6
Method: Mäuse vom Typ SPF-DF1 wurden intravenös mit 1 bis 2 x 10^6 logarytmisch wachsenden Candida-Zellen, die in physiologischer Kochsalzlösung suspendiert waren, infiziert. Eine Stunde vor und sieben Stunden nach der Infektion werden die Tiere mit jeweils 50 bis 100 mg/kg Körpergewicht der Präparate oral behandelt.
Unbehandelte Tiere starben 3 bis 6 Tage post infektionem. Die Überlebensrate am 6. Tag post infektionem betrug bei unbehandelten Kontrolltieren etwa 5 %.

SMILES | in-vivo-Wirksamkeit
CC(C)(C)C(O)C(C(O)C(Cl)(Cl)Cl)n1cncn1 (centres unmarked) [Beispiel 1, 1,1,1-Trichlor-3-(1,2,4-triazol-1-yl)-5,5-dimethyl-hexan-2,4-diol] | denjenigen der Verbindungen des Standes der Technik überlegen
CC(C)(C)C(O)C(C(O)C(C)(C)Cl)n1cncn1 (centres unmarked) [Beispiel 4] | denjenigen der Verbindungen des Standes der Technik überlegen
CC(C)(C)C(O)C(C(O)C=C(Cl)Cl)n1cncn1 (centres unmarked) [Beispiel 6] | denjenigen der Verbindungen des Standes der Technik überlegen
CC(Cl)C(Cl)(Cl)C(O)C(C(O)C(C)(C)CF)n1cncn1 (centres unmarked) [Beispiel 11] | denjenigen der Verbindungen des Standes der Technik überlegen
OC(c1ccc(Cl)cc1)C(C(O)C(Cl)(Cl)Cl)n1cncn1 (centres unmarked) [Beispiel 12] | denjenigen der Verbindungen des Standes der Technik überlegen
OC(c1ccc(Cl)cc1Cl)C(C(O)C(Cl)(Cl)Cl)n1cncn1 (centres unmarked) [Beispiel 14] | denjenigen der Verbindungen des Standes der Technik überlegen
OC(c1ccc(F)cc1)C(C(O)C(Cl)(Cl)Cl)n1cncn1 (centres unmarked) [Beispiel 15] | denjenigen der Verbindungen des Standes der Technik überlegen
CC(Cl)C(Cl)(Cl)C(O)C(C(O)C(C)(C)C)n1cncn1 (centres unmarked) [Beispiel 21] | denjenigen der Verbindungen des Standes der Technik überlegen
